The text below walks through data of patent publication US5652247A, “Carbostyril derivatives” (Otsuka Pharmaceutical Co., Ltd, priority 1989, dated 1997).

The experiment concerns the target T1, V1 receptor (Rattus norvegicus, UniProt P30560).
T1 construct: rat liver plasma membrane preparations; from tissue; host or cells: rat liver plasma membranes
The experiment in a line: V1 receptor binding assay. The following applies: [H]^3-Arg-vasopressin 2×10^-10 M, rat liver plasma membrane, 37° C., 10 minutes, pH 8.0.

What is called IC50 is the midpoint of a concentration-inhibition curve.

T1 sequence (P30560 whole entry): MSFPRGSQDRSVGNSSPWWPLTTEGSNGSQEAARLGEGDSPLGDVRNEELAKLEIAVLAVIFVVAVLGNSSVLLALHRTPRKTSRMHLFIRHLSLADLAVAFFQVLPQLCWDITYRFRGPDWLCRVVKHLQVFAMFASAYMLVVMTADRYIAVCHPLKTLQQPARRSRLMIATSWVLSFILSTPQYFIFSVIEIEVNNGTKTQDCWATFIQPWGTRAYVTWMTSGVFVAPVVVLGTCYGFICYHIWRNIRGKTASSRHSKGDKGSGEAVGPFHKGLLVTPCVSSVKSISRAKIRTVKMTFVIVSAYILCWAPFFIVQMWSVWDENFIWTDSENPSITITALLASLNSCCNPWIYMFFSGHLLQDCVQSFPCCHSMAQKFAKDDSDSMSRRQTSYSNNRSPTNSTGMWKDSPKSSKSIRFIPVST

`CN(C)c1ccc(S(=O)(=O)CCCCCOc2ccc(C(=O)N3CCC(N4C(=O)CCc5ccccc54)CC3)cc2)cc1` [Example 290, 1-{1-(4-[5-(4-Dimethylaminophenylsulfonyl)pentyloxy]benzoyl)-4-piperidinyl}-3,4-dihydrocarbostyril] displayed a concentration for half-maximal inhibition (IC50) of 300 nM.
`C#CCc1ccc(C(=O)N2CCC(N3C(=O)CCc4ccccc43)CC2)cc1` [Example 96, 1-[1-(4-Propargylbenzoyl)-4-piperidinyl]-3,4-dihydrocarbostyril] yielded an IC50 of 600 nM.
